Consider 31 compounds from patent publication US7902187B2, “6-substituted 2-(benzimidazolyl)purine and purinone derivatives for immunosuppression” (Wyeth LLC, priority 2006, dated 2011).

Each structure is given as a SMILES string.

The assay addresses T1, Jak3 (Homo sapiens, UniProt P52333).
T1 construct: A fragment encoding the catalytic domain of Jak3 (508aa to 1124aa) was ligated with GST at 5′ end; made in house; host or cells: Sf9 insect cells (baculovirus, pFastBac 1)
T1 sequence (P52333 508-1124): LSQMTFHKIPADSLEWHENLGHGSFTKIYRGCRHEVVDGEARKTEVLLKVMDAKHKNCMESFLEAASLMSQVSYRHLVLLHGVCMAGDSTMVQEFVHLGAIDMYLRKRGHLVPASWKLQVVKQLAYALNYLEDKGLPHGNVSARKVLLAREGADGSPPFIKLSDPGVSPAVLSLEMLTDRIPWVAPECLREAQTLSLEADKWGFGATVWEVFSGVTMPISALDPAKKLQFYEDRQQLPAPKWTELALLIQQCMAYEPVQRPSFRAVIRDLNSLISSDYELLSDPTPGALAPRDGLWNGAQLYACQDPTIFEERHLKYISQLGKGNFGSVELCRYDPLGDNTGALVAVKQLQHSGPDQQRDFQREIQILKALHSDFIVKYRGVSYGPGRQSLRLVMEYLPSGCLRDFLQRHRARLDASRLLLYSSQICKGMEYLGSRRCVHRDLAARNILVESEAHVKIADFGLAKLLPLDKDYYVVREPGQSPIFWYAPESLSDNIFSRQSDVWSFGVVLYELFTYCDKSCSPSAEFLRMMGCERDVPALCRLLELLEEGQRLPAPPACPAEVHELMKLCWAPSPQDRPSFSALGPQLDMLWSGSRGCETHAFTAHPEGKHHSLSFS
The assay is described as follows: Jak3 Kinase Assay (HTRF). Format: biochemical. To be noted: GST-Jak3 catalytic domain, 1 μM ATP, 60-min incubation; read-out: Jak3 Kinase, IC50 representation. How it is done: Human Jak3 cDNA was amplified by PCR. A fragment encoding the catalytic domain of Jak3 (508aa to 1124aa) was ligated with GST at 5′ end. This fused GST-Jak3 DNA fragment was cloned into the EcoRI site of the donor plasmid pFastBac 1 (Life Technologies #10359-016). The transformation, transposition, and transfection of insect cells (Sf9) were performed according to the manufacture's instructions. The cell lysate containing recombinant GST-Jak3 was used in the kinase assay. Anti-GST antibody (10 μg/ml, Sigma #G1417) was coated onto a 384-well plate at 4° C. overnight. Cell lysate containing GST-Jak3 (1:100 dilution) was added to the anti-GST coated plates, and GST-Jak3 was captured by immobilized anti-GST antibody. Testing compounds and substrate mix (50 mM HEPES, pH 7, 0.5 mM Na3VO4, 25 mM MgCl2, 1 mM DTT, 0.005% BSA, 1 μM ATP, and 4.5 μg/ml biotinyl poly-Glu,Ala,Tyr) were added to the plate to initiate the reaction. After a 60-min incubation, the reaction was stopped by 4 mM EDTA, and phosphorylation of biotinyl poly-Glu,Ala,Tyr was detected using 17 μg/ml Cy5-streptavidin (Amersham, #PA92005) and 2.7 μg/ml Europium-conjugated anti-phosphotyrosine antibody (PerkinElmer #AD0069) using homogeneous time-resolved fluorescence (HTRF) technology.
(In general: TR-FRET usually uses a lanthanide donor and a delayed reading to cut background.)
As usually defined, the IC50 is the concentration at which inhibition is half-maximal. Consider `N#Cc1ccc2ncn(-c3nc(N4CC(C(=O)O)C4)c4[nH]c(=O)n(C5CCOCC5)c4n3)c2c1`, for which the IC50 was under 100 nM. Turning to `N#CCNC(=O)c1nc(-n2cnc3ccc(F)cc32)nc2c1[nH]c(=O)n2C1CCOCC1`, the IC50 was under 100 nM. `Cn1c(=O)n([C@H]2CC[C@H](O)CC2)c2nc(-n3cnc4ccc(C#N)cc43)nc(N3CC(F)(F)C3)c21`: the IC50 was under 100 nM. Consider `CCOC(=O)c1nc(-n2cnc3ccc(F)cc32)nc2c1[nH]c(=O)n2C1CCOCC1`, for which the IC50 lay within 100 to 1000 nM. On to `CN1CCCN(c2nc(-n3cnc4ccc(Cl)cc43)nc3c2[nH]c(=O)n3C2CCOCC2)CC1`, for which the IC50 was under 100 nM. `Cc1cccc(-c2nc(-n3cnc4ccc(F)cc43)nc3c2[nH]c(=O)n3C2CCOCC2)c1`: the IC50 is 100 to 1000 nM.

As to `O=c1[nH]c2c(-c3ccncc3)nc(-n3cnc4ccc(OC(F)(F)F)cc43)nc2n1C1CCOCC1`, the half-maximal inhibitory concentration (IC50) lay within 100 to 1000 nM.

Turning to `O=c1[nH]c2c(-c3ccc(F)nc3)nc(-n3cnc4ccc(F)cc43)nc2n1C1CCOCC1`, the half-inhibitory concentration (IC50) is under 100 nM.

For `Cn1c(=O)n([C@H]2CC[C@H](O)CC2)c2nc(-n3cnc4ccc(Cl)cc43)nc(N3CC[C@H](F)C3)c21`, the 50% inhibitory concentration (IC50) was under 100 nM. For `Cn1c(=O)n([C@H]2CC[C@H](O)CC2)c2nc(-n3cnc4ccc(F)cc43)nc(N3CC(F)(F)C3)c21`, the IC50 was under 100 nM. In the case of `O=c1[nH]c2c(N3CC(F)(F)C3)nc(-n3cnc4ccc(F)cc43)nc2n1[C@H]1CC[C@H](O)CC1`, the IC50 is under 100 nM. Take `O=c1[nH]c2c(N3CCCC3)nc(-n3cnc4ccc(F)cc43)nc2n1C1CCOCC1`: the IC50 was under 100 nM. The same measure for `O=c1[nH]c2c(CO)nc(-n3cnc4ccc(F)cc43)nc2n1C1CCOCC1`: 100 to 1000 nM. As for `COCCCCn1c(=O)[nH]c2c(N3CC(F)(F)C3)nc(-n3cnc4ccc(C#N)cc43)nc21`, the IC50 was under 100 nM. As for `O=c1[nH]c2c(-c3ccccc3)nc(-n3cnc4ccccc43)nc2n1[C@@H]1CCOc2ccc(F)cc21`, the IC50 lay in the range of 100 to 1000 nM.

Take `CC(C)CNc1nc(-n2cnc3ccc(F)cc32)nc2c1[nH]c(=O)n2[C@@H]1CCOc2c(F)cccc21`: the IC50 lay within 100 to 1000 nM.

`O=c1[nH]c2c(-c3ccccc3)nc(-n3cnc4ccc(F)cc43)nc2n1[C@@H]1CCOc2c(F)cccc21`: the IC50 fell in the range of 100 to 1000 nM. Turning to `C[C@@H](Nc1nc(-n2cnc3ccc(F)cc32)nc2c1[nH]c(=O)n2C1CCOCC1)c1ccccc1`, the IC50 was over 1000 nM. For `O=c1[nH]c2c(Oc3ccncc3)nc(-n3cnc4ccc(F)cc43)nc2n1C1CCOCC1`, the IC50 was under 100 nM. The same measure for `COCCCn1c(=O)[nH]c2c(N3CC(F)(F)C3)nc(-n3cnc4ccc(C#N)cc43)nc21`: under 100 nM; for `CC(C)Cc1nc(-n2cnc3ccc(F)cc32)nc2c1[nH]c(=O)n2[C@@H]1CCOc2c(F)cccc21`: 100 to 1000 nM. The result for `CCOC(=O)CCc1nc(-n2cnc3ccc(F)cc32)nc2c1[nH]c(=O)n2[C@@H]1CCOc2c(F)cccc21` reads 100 to 1000 nM; that for `NC(=O)C1CCN(c2nc(-n3cnc4ccc(F)cc43)nc3c2[nH]c(=O)n3C2CCOCC2)CC1`, under 100 nM. As for `Cn1cc(-c2nc(-n3cnc4ccc(F)cc43)nc3c2[nH]c(=O)n3C2CCOCC2)cn1`, the IC50 is under 100 nM. The same measure for `CO[C@H]1CC[C@H](n2c(=O)[nH]c3c(N4CC(F)(F)C4)nc(-n4cnc5ccc(C#N)cc54)nc32)CC1`: under 100 nM. The result for `O=c1[nH]c2c(-c3ccc(F)cc3)nc(-n3cnc4ccc(F)cc43)nc2n1C1CCOCC1` reads 100 to 1000 nM; that for `COCCCNc1nc(-n2cnc3ccc(Cl)cc32)nc2c1[nH]c(=O)n2C1CCOCC1`, under 100 nM; that for `O=c1[nH]c2c(N3CCCC(F)(F)C3)nc(-n3cnc4ccc(F)cc43)nc2n1C1CCOCC1`, under 100 nM. The same measure for `O=c1[nH]c2c(N3CC[C@H](F)C3)nc(-n3cnc4ccc(F)cc43)nc2n1C1CCOCC1`: under 100 nM. As for `Cn1c(=O)n([C@H]2CC[C@H](O)CC2)c2nc(-n3cnc4ccc(F)cc43)nc(N3CCC(F)(F)CC3)c21`, the IC50 is under 100 nM. The same measure for `CNC(=O)c1nc(-n2cnc3ccc(F)cc32)nc2c1[nH]c(=O)n2C1CCOc2ccccc21` (stereo not shown): under 100 nM.
